Our source for the IC50, LD50 and half-life values is ChEMBL document CHEMBL4342402, “An insight into medicinal chemistry of anticancer quinoxalines” (Bioorg Med Chem, 2019).

pIC50: −log10 of the molar value.

For data set [1], the system named is MCF7. Kind of data set: Cytotoxicity against human MCF7 cells after 48 hrs by MTT assay. It counts as functional, cell-based. The note with it: MCF7, 48 h. (Formazan colour is commonly taken as a measure of viable cells.)
Data set [2] in a line: Acute toxicity in po dosed Wistar rat measured up to 14 days. Type of data set: organism-based. The note with it: in vivo.
For data set [3], the system named is U-87 MG. Kind of data set: Antiangiogenic activity in human U87cells after 24 hrs by MTT assay. It counts as functional, cell-based, U-87MG ATCC.
For data set [4], the system named is BE. Kind of data set: Antiangiogenic activity in human BE cells after 24 hrs by MTT assay. It counts as functional, cell-based.
Data set [5] relates to HUVEC. Kind of data set: Antiangiogenic activity in HUVEC after 24 hrs by MTT assay. Type of data set: functional, cell-based. The note with it: Homo sapiens.
Data set [6] deals with T1, Receptor-type tyrosine-protein kinase FLT3 (Homo sapiens, UniProt P36888).
T1 sequence (P36888 whole entry): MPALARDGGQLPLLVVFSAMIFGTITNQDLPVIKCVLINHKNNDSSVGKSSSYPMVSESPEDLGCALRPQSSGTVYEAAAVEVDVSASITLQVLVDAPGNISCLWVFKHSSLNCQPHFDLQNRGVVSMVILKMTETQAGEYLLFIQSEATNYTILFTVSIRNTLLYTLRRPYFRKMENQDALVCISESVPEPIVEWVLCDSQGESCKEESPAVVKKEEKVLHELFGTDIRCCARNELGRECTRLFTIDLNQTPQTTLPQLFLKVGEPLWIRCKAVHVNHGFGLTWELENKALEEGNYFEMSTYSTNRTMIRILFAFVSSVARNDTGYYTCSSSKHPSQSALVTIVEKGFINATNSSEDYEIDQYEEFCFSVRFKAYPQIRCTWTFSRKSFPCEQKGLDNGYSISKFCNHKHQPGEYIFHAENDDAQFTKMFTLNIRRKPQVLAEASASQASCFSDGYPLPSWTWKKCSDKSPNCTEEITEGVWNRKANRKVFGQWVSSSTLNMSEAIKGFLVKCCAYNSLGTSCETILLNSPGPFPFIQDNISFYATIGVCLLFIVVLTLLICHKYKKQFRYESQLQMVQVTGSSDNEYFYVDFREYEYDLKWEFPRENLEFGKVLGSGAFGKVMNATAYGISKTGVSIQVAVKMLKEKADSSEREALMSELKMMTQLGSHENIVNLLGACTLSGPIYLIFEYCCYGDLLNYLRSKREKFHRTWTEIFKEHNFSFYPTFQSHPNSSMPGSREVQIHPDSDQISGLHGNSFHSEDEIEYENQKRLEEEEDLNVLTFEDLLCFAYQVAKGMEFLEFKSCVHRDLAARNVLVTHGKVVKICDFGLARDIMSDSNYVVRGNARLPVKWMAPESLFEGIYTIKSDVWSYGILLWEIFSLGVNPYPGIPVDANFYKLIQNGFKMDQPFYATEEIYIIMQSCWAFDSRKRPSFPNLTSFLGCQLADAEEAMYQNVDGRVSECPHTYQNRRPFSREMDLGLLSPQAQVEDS
Kind of data set: Inhibition of human FLT3 expressed in mouse BAF3 cells assessed as reduction in […] incubated for 2 hrs followed by FLT3 ligand stimulation by immunoblot analysis. It counts as cell-based. (Immunoblotting shows a protein as a band on a membrane.)

Data set [7] in a line: Inhibition of PDGFR in mouse NIH/3T3 cells assessed as reduction in tyrosine phosphorylation incubated for 2 hrs by SDS-PAGE based immunoblot assay. Type of data set: cell-based. The note with it: NIH3T3, 2 h.
Data set [8] deals with Mast/stem cell growth factor receptor Kit (Homo sapiens, UniProt P10721). Kind of data set: Inhibition of c-KIT in human M-07e cells assessed as reduction in […] incubated for 2 hrs followed by KIT ligand stimulation by immunoblotting analysis. It counts as cell-based.
Data set [9] concerns the target Platelet-derived growth factor receptor beta (Homo sapiens, UniProt P09619). Kind of data set: Inhibition of human PDGFR beta.
Data set [10] concerns the target Insulin-like growth factor 1 receptor (Homo sapiens, UniProt P08069). Kind of data set: Inhibition of IGFR1 (unknown origin) using poly (Glu,Tyr) 4:1 as substrate.
For data set [11], the target named is Epidermal growth factor receptor (Homo sapiens, UniProt P00533). Kind of data set: Inhibition of EGFR in human A431 cells incubated for 2 hrs followed by EGF stimulation and measured after 10 mins by immunoblot assay. It counts as cell-based.
The target in data set [12] is Proto-oncogene tyrosine-protein kinase Src (Mus musculus, UniProt P05480). Kind of data set: Inhibition of SRC in transformed mouse NIH3T3 cells by SDS-PAGE based immunoblot assay. Type of data set: cell-based.
The nature of data set [13]: Inhibition of VEGFR (unknown origin). Also noted: species or system Homo sapiens.
Data set [14] deals with K562. Kind of data set: Cytotoxicity against human K562 cells after 72 hrs in presence of 3% O2 by MTT assay. It counts as functional, cell-based. The settings on record: K562, 72 h.
Data set [15] relates to PC-3. Kind of data set: Cytotoxicity against human PC3 cells after 72 hrs in presence of 3% O2 by MTT assay. Type of data set: functional, cell-based. The note with it: PC-3, 72 h.
Data set [16] concerns SMMC-7721. Kind of data set: Cytotoxicity against human SMMC7721 cells after 72 hrs in presence of 3% O2 by MTT assay. Type of data set: functional, cell-based. The note with it: SMMC-7721, 72 h.
The test system of data set [17] is K562. Kind of data set: Cytotoxicity against human K562 cells after 72 hrs in presence of 20% O2 by MTT assay. It counts as functional, cell-based. The note with it: K562, 72 h.
Data set [18] concerns SMMC-7721. Kind of data set: Cytotoxicity against human SMMC7721 cells after 72 hrs in presence of 20% O2 by MTT assay. It counts as functional, cell-based. The note with it: SMMC-7721, 72 h.
The test system of data set [19] is SGC-7901. Kind of data set: Cytotoxicity against human SGC7901 cells after 72 hrs in presence of 3% O2 by MTT assay. The note with it: SGC-7901, 72 h. It counts as functional, cell-based.
The test system of data set [20] is PC-3. Kind of data set: Cytotoxicity against human PC3 cells after 72 hrs in presence of 20% O2 by MTT assay. Type of data set: functional, cell-based. The note with it: PC-3, 72 h.
Data set [21] has as its system ECa-109 cell line. Kind of data set: Cytotoxicity against human ECA109 cells after 72 hrs in presence of 3% O2 by MTT assay. Type of data set: functional, cell-based. The note with it: ECa-109, 72 h.
Data set [22] deals with SGC-7901. Kind of data set: Cytotoxicity against human SGC7901 cells after 72 hrs in presence of 20% O2 by MTT assay. Type of data set: functional, cell-based. The note with it: SGC-7901, 72 h.
For data set [23], the system named is ECa-109 cell line. Kind of data set: Cytotoxicity against human ECA109 cells after 72 hrs in presence of 20% O2 by MTT assay. Type of data set: functional, cell-based. The settings on record: ECa-109, 72 h.
Data set [24] is described as follows: Half life in guinea pig plasma. Type of data set: ADME, cell-free, Cavia porcellus.
Data set [25] in a line: Half life in rat plasma. It counts as ADME, cell-free.
Data set [26] in a line: Half life in mouse plasma. It counts as ADME, cell-free.
For data set [27], the system named is HCT-15. Kind of data set: Antiproliferative activity against human HCT15 cells. Type of data set: functional, cell-based.
In data set [28] the test system is SK-OV-3. Kind of data set: Antiproliferative activity against human SKOV3 cells. Type of data set: functional, cell-based.
Data set [29] can be described thus: Inhibition of phosphoinositide 3-Kinase (unknown origin). Also noted: species or system Homo sapiens.
In data set [30] the target is Cyclin-dependent kinase 5/CDK5 activator 1 (Homo sapiens, UniProt Q00535). Kind of data set: Inhibition of CDK5/p25 (unknown origin) expressed in Escherichia coli using histone as substrate in presence of [gamma32P]ATP after 10 mins by scintillation counting method.
A short description of data set [31]: Inhibition of Marthasterias glacialis oocyte CDK1/cyclin B using histone as substrate in presence of [gamma32P]ATP after 10 mins by scintillation counting method.

Chain of Proto-oncogene tyrosine-protein kinase Src (P05480 2-535 limits assumed): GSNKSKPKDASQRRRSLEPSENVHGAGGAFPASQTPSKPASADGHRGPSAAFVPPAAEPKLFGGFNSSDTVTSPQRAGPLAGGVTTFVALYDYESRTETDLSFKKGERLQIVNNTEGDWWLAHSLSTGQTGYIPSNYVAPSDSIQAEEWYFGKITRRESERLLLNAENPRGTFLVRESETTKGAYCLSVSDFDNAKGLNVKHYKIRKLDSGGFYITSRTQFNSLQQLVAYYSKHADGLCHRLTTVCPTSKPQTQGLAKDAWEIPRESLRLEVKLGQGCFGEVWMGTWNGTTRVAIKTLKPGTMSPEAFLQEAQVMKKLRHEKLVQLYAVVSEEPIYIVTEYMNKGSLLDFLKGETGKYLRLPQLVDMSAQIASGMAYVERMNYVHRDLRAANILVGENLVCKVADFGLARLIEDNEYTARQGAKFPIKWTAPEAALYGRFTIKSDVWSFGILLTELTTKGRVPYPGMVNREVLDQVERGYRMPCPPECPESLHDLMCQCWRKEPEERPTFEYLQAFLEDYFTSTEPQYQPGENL
Chain of Mast/stem cell growth factor receptor Kit (P10721 whole entry): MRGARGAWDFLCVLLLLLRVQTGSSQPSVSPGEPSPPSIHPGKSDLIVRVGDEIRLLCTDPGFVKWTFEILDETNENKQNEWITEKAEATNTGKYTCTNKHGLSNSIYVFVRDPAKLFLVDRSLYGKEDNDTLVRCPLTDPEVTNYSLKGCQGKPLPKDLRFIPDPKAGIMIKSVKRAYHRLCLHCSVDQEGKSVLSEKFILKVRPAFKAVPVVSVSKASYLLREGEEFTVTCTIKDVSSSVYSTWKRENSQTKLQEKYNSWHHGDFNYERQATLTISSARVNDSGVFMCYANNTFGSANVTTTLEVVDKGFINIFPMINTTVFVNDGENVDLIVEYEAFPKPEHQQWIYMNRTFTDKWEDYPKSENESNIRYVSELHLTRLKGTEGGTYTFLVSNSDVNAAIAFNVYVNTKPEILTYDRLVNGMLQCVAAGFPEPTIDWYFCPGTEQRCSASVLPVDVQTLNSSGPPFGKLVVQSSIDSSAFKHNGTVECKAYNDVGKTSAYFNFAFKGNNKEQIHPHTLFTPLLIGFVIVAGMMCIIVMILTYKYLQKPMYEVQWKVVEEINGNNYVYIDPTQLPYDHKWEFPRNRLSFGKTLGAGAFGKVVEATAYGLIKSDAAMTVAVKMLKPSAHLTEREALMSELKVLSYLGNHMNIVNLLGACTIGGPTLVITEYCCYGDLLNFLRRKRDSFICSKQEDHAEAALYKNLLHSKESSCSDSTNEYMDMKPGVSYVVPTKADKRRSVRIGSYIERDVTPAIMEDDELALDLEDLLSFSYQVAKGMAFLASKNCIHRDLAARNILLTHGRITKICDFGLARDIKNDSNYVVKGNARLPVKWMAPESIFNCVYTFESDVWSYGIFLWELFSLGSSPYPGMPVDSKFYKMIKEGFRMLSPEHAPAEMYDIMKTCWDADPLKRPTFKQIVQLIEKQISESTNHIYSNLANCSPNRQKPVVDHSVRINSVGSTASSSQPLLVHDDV
Chain of Platelet-derived growth factor receptor beta (P09619 whole entry): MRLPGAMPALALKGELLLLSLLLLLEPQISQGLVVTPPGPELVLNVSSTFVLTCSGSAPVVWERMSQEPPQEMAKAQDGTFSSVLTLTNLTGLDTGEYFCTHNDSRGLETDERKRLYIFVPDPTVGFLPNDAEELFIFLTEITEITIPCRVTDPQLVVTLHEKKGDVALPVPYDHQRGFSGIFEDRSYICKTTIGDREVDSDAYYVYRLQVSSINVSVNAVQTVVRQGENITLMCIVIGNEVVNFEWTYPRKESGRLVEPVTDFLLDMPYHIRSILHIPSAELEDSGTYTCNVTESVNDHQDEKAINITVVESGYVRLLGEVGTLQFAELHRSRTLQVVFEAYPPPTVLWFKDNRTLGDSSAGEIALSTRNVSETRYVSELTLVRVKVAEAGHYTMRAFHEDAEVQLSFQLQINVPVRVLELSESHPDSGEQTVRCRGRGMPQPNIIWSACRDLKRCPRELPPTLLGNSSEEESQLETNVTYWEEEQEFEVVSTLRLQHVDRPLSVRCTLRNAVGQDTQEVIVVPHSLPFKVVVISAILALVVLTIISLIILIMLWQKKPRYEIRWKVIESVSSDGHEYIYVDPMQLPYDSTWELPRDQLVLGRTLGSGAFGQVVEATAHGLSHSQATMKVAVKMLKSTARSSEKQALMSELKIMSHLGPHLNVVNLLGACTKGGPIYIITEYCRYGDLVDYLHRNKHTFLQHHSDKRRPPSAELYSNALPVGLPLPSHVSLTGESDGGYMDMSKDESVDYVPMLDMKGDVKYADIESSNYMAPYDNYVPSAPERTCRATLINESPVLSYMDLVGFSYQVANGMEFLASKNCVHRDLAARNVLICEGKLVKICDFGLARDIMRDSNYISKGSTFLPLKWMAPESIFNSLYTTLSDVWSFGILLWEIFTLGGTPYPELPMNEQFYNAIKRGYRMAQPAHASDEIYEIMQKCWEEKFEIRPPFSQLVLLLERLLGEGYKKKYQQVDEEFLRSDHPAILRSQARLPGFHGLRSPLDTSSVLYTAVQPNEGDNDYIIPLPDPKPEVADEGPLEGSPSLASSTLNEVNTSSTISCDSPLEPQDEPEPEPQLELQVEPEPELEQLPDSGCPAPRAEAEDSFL
Chain of Insulin-like growth factor 1 receptor (P08069 31-736 limits assumed): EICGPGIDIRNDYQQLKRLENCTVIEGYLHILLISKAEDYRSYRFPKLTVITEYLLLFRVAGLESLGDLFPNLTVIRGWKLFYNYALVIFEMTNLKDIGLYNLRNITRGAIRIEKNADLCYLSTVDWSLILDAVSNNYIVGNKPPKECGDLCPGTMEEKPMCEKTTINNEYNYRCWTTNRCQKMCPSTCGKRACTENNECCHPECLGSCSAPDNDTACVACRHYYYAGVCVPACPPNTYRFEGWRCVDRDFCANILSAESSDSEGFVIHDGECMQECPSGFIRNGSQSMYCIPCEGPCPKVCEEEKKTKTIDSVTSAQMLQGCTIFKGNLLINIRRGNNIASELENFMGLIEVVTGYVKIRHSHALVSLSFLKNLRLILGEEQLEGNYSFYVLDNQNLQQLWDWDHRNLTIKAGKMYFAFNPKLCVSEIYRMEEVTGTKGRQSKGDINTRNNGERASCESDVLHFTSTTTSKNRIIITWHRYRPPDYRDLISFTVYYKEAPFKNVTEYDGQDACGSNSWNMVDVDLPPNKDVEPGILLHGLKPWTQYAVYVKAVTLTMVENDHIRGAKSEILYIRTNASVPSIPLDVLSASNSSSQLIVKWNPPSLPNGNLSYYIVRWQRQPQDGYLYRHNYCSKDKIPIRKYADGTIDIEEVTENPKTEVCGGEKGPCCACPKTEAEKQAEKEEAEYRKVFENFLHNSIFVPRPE
Chain of Insulin-like growth factor 1 receptor (P08069 741-1367 limits assumed): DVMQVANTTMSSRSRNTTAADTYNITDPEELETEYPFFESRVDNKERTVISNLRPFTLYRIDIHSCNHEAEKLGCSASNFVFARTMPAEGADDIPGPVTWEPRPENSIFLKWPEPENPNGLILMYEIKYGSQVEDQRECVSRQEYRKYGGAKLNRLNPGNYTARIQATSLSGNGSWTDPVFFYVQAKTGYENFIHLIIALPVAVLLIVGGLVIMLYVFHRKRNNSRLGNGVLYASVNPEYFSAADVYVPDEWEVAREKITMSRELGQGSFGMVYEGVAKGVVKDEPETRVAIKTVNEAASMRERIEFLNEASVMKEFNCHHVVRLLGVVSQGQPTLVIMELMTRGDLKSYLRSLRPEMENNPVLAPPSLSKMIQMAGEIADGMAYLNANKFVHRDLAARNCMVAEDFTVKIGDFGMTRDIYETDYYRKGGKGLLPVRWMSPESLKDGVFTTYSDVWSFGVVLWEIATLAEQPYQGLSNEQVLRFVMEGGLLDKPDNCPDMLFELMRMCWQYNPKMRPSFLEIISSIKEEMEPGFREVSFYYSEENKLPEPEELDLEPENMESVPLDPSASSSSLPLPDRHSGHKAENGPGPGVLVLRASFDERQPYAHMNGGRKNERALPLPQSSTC
Chain of Cyclin-dependent kinase 5/CDK5 activator 1 (Q00535 whole entry): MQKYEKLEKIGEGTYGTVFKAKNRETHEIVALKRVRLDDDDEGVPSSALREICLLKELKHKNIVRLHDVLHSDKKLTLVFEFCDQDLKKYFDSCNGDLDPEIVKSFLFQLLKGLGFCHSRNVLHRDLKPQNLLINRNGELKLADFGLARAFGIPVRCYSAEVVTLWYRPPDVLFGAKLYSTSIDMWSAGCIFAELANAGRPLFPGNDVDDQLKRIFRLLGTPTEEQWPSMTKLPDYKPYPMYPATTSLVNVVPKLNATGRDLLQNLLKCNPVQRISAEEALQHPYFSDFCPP
Chain of Cyclin-dependent kinase 5/CDK5 activator 1 (Q15078 whole entry, further chain): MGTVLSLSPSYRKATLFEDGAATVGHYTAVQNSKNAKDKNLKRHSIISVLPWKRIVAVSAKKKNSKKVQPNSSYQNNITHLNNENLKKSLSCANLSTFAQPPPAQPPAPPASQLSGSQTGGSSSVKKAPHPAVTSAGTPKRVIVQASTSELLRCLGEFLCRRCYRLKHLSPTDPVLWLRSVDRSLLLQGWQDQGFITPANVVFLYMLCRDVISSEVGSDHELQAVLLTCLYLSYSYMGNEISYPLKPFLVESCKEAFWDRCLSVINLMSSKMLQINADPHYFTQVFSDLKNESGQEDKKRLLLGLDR

For orientation: pIC50 means the negative decadic logarithm of the IC50, by convention in mol/L. In data set [1], `C[n+]1c2ccccc2nc2c1c1cc(F)ccc1n2CCCC[N+]1(C)CCCCC1` had a pIC50 of 5.71.

In general, LD50 refers to the dose expected to kill half of the subjects tested. A low value points to greater toxicity. For the compound `CC(=O)c1c(C)[n+]([O-])c2ccccc2[n+]1[O-]` [MEQUINDOX], in [2], the LD50 at 336 h is 550 mg/kg.

For `Cc1cc2ncc(-c3ccc(O)c(O)c3)nc2cc1C`, the pIC50 in data set [3] is < 4.30; in data set [4], < 4.30; in data set [5], 4.61.

Consider `Cc1nc2cc3nc(-c4cccs4)cnc3cc2n1C`, for which the pIC50 is 5.52 to 6.00 in data set [6]; 6.10 in data set [7]; 5.52 to 6.00 in data set [8]; 7.05 in [9]; < 4.52 in [10]; < 4.52 in [11]. Besides, the pIC50 in [12] and in [13] was < 4.52 each time.

With `CCS(=O)(=O)c1c(-c2ccc(Br)cc2)[n+]([O-])c2cc(C)ccc2[n+]1[O-]`, the pIC50 in [14] is 6.74; in data set [15], 5.30; in data set [16], 5.50; in data set [17], > 5.00; in data set [18], > 5.00; in data set [19], 5.05. Moreover, the pIC50 in [20] is > 5.00; in data set [21] it was 5.20; in [22], > 5.00; in data set [23], > 5.00.

Usually half-life stands for the time in which the quantity being followed falls by half. A lower half-life goes with rapid decline. Turning to `CC(C)OC(=O)N1CCN(c2ncc(-c3ccc4nccnc4c3)cc2C#N)CC1`, the results for the half-life in data set [24], in [25] and in [26] were 4.02 min, 16.7 min and 61 min, respectively.

For `CCCCCNCc1ccc2c(c1)C(=O)c1nccnc1C2=O`, the pIC50 is 7.30 in data set [27] and 6.40 in [28].

In [29], `O=S(=O)(c1ccccc1)c1nc2ccccc2nc1N1CCOCC1` showed a pIC50 of 7.40.

As for `CC(=O)Oc1ccc(-c2cnc3cc(C)c(C)cc3n2)cc1O`, the pIC50 is 4.37 in [3], < 4.30 in data set [4] and 4.26 in data set [5].

`COc1ccc(-c2cnc3cc(C)c(C)cc3n2)cc1O`: the pIC50 in data set [3] is < 4.30; in data set [4] it was < 4.30; in data set [5] it was < 4.00.

For the compound `Cc1cc2ncc(-c3ccc(OCc4ccccc4)c(O)c3)nc2cc1C`, the results for the pIC50 in [3], in data set [4] and in [5] were 4.80, 4.39 and < 4.00, respectively.

Turning to `O=C(c1ccccc1)N1CCN(c2nc3ccccc3nc2S(=O)(=O)c2ccccc2)CC1`, the pIC50 in data set [29] was 7.40.

On to `O=S(=O)(c1ccc(Br)cc1)c1nc2ccccc2nc1N1CCC(O)CC1`, for which the pIC50 in data set [29] was 7.40.

In data set [29], `NC(=O)C1CCN(c2nc3ccccc3nc2S(=O)(=O)c2ccc(Br)cc2)CC1` gave a pIC50 of 7.40.

As for `C[n+]1c2ccccc2nc2c1c1cc(F)ccc1n2CCCCCC[N+]1(C)CCCCC1`, in data set [1], the pIC50 is 5.80.

Consider `C[n+]1c2ccccc2nc2c1c1cc(F)ccc1n2CCCC[N+]1(C)CCCC1`, for which the pIC50 in [1] was 5.74.

With `Nc1n[nH]c2nc3ccccc3nc12` [QUINOXALINE1], the negative logarithm of the IC50 (pIC50) in [30] is 6.40; in data set [31] it was 6.22.
